Source: patent US8344010B2, “Fused imidazole derivatives as TRPV3 antagonist” (Glenmark Pharmaceuticals S.A., priority 2008, dated 2013)

Biological target: T1, Human TRPV3 (Homo sapiens, UniProt Q8NET8)
T1 construct: expressed in transfected cells; host or cells: CHO cells (selected with G-418)
T1 sequence (Q8NET8 1-790): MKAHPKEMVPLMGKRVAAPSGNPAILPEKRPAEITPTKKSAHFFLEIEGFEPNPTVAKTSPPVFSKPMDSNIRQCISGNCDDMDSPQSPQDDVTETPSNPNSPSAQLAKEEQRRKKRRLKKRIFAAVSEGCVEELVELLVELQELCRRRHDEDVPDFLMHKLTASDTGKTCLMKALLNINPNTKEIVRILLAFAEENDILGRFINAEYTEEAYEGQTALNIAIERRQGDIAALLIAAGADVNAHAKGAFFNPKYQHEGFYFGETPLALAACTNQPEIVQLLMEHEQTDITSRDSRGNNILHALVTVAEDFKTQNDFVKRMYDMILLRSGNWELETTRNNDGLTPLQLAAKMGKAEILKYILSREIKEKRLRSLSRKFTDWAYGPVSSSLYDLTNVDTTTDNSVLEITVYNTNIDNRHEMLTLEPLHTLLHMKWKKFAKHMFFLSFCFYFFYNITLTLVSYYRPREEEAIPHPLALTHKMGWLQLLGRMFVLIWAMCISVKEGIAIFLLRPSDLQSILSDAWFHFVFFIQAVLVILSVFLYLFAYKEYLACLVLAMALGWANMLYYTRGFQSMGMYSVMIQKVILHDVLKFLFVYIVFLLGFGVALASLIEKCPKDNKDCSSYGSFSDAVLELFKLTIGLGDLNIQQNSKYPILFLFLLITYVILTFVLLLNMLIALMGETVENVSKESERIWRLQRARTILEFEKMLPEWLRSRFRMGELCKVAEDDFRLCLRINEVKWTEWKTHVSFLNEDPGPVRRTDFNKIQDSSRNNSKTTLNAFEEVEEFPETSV
Assay: 45Calcium uptake assay: inhibition of 2-APB induced cellular uptake of radioactive calcium
Assay type: cell-based
Conditions: human TRPV3 expressing CHO cells, 2-APB 500 μM; for inhibition at 1 µM: 1 μM test compound, read-out: Percentage Inhibition (1 μM); for inhibition at 10 µM: 10 μM test compound, read-out: Percentage Inhibition (10 μM); for IC50: class symbol
How it was run: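 CHO cells expressing human TRPV3 were preincubated with compound for 10 min (0.5% DMSO final), then given 500 μM 2-APB plus 5 μCi/ml 45Ca2+ for 4 min. Lysate radioactivity was counted by scintillation; responses as % of maximal without antagonist, with IC50 by nonlinear regression.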

| SMILES | inhibition at 1 µM [%] | inhibition at 10 µM [%] | IC50 [µM] |
| --- | --- | --- | --- |
| COc1cccc(/C=C/c2nc3ccc[n+]([O-])c3n2-c2ccc(C#N)cn2)c1OC1CCCC1 [Example 92, 6 (2-{(E)-2-[2-(cyclopentyloxy)-3-methoxyphenyl]ethenyl}-4-oxido-3H-imidazo[4,5-b]pyridin-3-yl)pyridine-3-carbonitrile] | 3.02 | 24.5 | – |
| CCCCCOc1c(/C=C/c2nc3cc(Cl)cnc3n2-c2ccc(C#N)cn2)cccc1OC [Example 93, 6-{6-Chloro-2-[(E)-2-(2-pentyloxy-3-methoxyphenyl)vinyl]-3H-imidazo[4,5-b]pyridin-3-yl}nicotinonitrile] | 95.2 | 97.6 | 0.05 to 0.1 |
| COc1cccc(/C=C/c2nc3cc(Cl)cnc3n2-c2ccc(C#N)cn2)c1OCC1CCC1 [Example 94, 6-(6-Chloro-2-{(E)-2-[2-(cyclobutylmethoxy)-3-methoxyphenyl]vinyl}-3H-imidazo[4,5-b]pyridin-3-yl)nicotinonitrile] | 94.5 | 98 | 0.05 to 0.1 |
| COc1cccc(/C=C/c2nc3cc(Cl)cnc3n2-c2ccc(C#N)cn2)c1OC1CCCC1 [Example 95, 6-{6-Chloro-2-[(E)-2-(2-(cyclopentyloxy)-3-methoxyphenyl)vinyl]-3H-imidazo[4,5-b]pyridin-3-yl}nicotinonitrile] | 93.7 | 97.8 | 0.05 to 0.1 |
| CCCCCOc1c(/C=C/c2nc3cccnc3n2-c2ccc(C#N)cn2)cccc1OC(F)F [Example 96, 6-(2-{(E)-2-[3-(Difluoromethoxy)-2-pentyloxyphenyl]vinyl}-3H-imidazo[4,5-b]pyridin-3-yl)nicotinonitrile] | 97.1 | 98.1 | 0.05 to 0.1 |
| N#Cc1ccc(-n2c(/C=C/c3cccc(OC(F)F)c3OCC3CCC3)nc3cccnc32)nc1 [Example 97, 6-(2-{(E)-2-[2-(Cyclobutylmethoxy)-3-difluoromethoxyphenyl]vinyl}-3H-imidazo[4,5-b]pyridin-3-yl)nicotinonitrile] | 96 | 99.2 | 0.05 to 0.1 |
| N#Cc1ccc(-n2c(/C=C/c3cccc(OC(F)F)c3OC3CCCC3)nc3cccnc32)nc1 [Example 98, 6-(2-{(E)-2-[2-(Cyclopentyloxy)-3-difluoromethoxyphenyl]vinyl}-3H-imidazo[4,5-b]pyridin-3-yl)nicotinonitrile] | 95.9 | 100 | 0.1 to 0.5 |
| FC(F)Oc1cccc(/C=C/c2nc3cccnc3n2-c2ccc(C(F)(F)F)cc2)c1OCC1CCC1 [Example 99, 2-[(E)-2-(2-Cyclobutylmethoxy-3-difluoromethoxyphenyl)vinyl]-3-[4-(trifluoromethyl)phenyl]-3H-imidazo[4,5-b]pyridine] | 89.5 | 95.8 | > 0.5 |
| FC(F)Oc1cccc(/C=C/c2nc3cccnc3n2-c2ccc(OC(F)(F)F)cc2)c1OCC1CCC1 [Example 100, 2-{(E)-2-[2-Cylobutylmethoxy-3-(difluoromethoxy)phenyl]vinyl}-3-[4-(trifluoromethoxy)phenyl]-3H-imidazo[4,5-b]pyridine] | 66.3 | 94.9 | – |
| CCCCCOc1c(/C=C/c2nc3cc(Cl)cnc3n2-c2ccc(C#N)cn2)cccc1OC(F)F [Example 101, 6-(6-Chloro-2-{(E)-2-[3-(difluoromethoxy)-2-pentyloxyphenyl]vinyl}-3H-imidazo[4,5-b]pyridin-3-yl)nicotinonitrile] | 30.3 | 85.2 | – |
| N#Cc1ccc(-n2c(/C=C/c3cccc(OC(F)F)c3OCC3CCC3)nc3cc(Cl)cnc32)nc1 [Example 102, 6-(6-Chloro-2-{(E)-2-[2-(cyclobutylmethoxy)-3-difluoromethoxyphenyl]vinyl}-3H-imidazo[4,5-b]pyridin-3-yl)nicotinonitrile] | 95.1 | 98.1 | 0.05 to 0.1 |
| N#Cc1ccc(-n2c(/C=C/c3cccc(OC(F)F)c3OC3CCCC3)nc3cc(Cl)cnc32)nc1 [Example 103, 6-(6-Chloro-2-{(E)-2-[2-(cyclopentyloxy)-3-difluoromethoxyphenyl]vinyl}-3H-imidazo[4,5-b]pyridin-3-yl)nicotinonitrile] | 98.3 | 97.8 | 0.05 to 0.1 |
| COc1cccc(/C=C/c2nc3cnccc3n2-c2ccc(C#N)cn2)c1OC1CCCC1 [Example 104, 6-{2-[(E)-2-(2-[Cyclopentyloxy]-3-methoxyphenyl)vinyl]-1H-imidazo[4,5-c]pyridin-1-yl}nicotinonitrile] | 48.7 | 98.3 | – |
